US20260042731A1, “(2,4-DICHLOROPHENOXY)ACETIC ACID ANALOGS” (CORTEVA AGRISCIENCE LLC, priority 2022, published 2026)
Where two headings read alike, the source gives them in different places.

What was measured:
[1] = system: Amaranthus rudis (AMATA), tall water hemp; test: Postemergence herbicide evaluation, growth of Amaranthus rudis (AMATA); assay type: in vivo; details: Amaranthus tuberculatus, post-emergence, percent reduction in plant size relative to untreated control, read-out: Ave. AMATA; for pest or weed control at 280 g/ha: 280 g ae/ha; for pest or weed control at 560 g/ha: 560 g ae/ha
[2] = system: glyphosate resistant Conyza canadensis (L.) (ERICA), horseweed; test: Postemergence herbicide evaluation, growth of Conyza canadensis (ERICA); assay type: in vivo; details: Erigeron canadensis, post-emergence, percent reduction in plant size relative to untreated control, read-out: Ave. ERICA; for pest or weed control at 280 g/ha: 280 g ae/ha; for pest or weed control at 560 g/ha: 560 g ae/ha
[3] = system: Chenopodium album (CHEAL), common lambsquarters; test: Postemergence herbicide evaluation, growth of Chenopodium album (CHEAL); assay type: in vivo; details: Chenopodium album, post-emergence, percent reduction in plant size relative to untreated control, read-out: Ave. CHEAL; for pest or weed control at 280 g/ha: 280 g ae/ha; for pest or weed control at 560 g/ha: 560 g ae/ha
[4] = Volatility of compounds measured by thermogravimetric analysis (TGA); assay type: physicochemical
[5] = system: Ambrosia artemisiifolia (AMBEL), common ragweed; test: Postemergence herbicide evaluation, growth of Ambrosia artemisiifolia (AMBEL); assay type: in vivo; details: Ambrosia artemisiifolia, post-emergence, percent reduction in plant size relative to untreated control, read-out: AVE. AMBEL; for pest or weed control at 280 g/ha: 280 g ae/ha; for pest or weed control at 560 g/ha: 560 g ae/ha
[6] = system: weeds (ABUTH, AMATA, AMBEL, CHEAL, ERICA); test: Postemergence herbicide evaluation, overall average % weed control across ABUTH, AMATA, AMBEL, CHEAL, ERICA; assay type: in vivo; details: post-emergence, average over the five weeds, read-out: Overall Ave % Weed Control; for pest or weed control at 280 g/ha: 280 g ae/ha; for pest or weed control at 560 g/ha: 560 g ae/ha
[7] = system: Abutilon theophrasti (ABUTH), velvetleaf; test: Postemergence herbicide evaluation, growth of Abutilon theophrasti (ABUTH); assay type: in vivo; details: Abutilon theophrasti, post-emergence, percent reduction in plant size relative to untreated control, read-out: AVE. ABUTH; for pest or weed control at 280 g/ha: 280 g ae/ha; for pest or weed control at 560 g/ha: 560 g ae/ha

| SMILES | pest or weed control at 280 g/ha ([1]; 168 h, 7 DAA) [%] | pest or weed control at 560 g/ha ([1]; 168 h, 7 DAA) [%] | pest or weed control at 280 g/ha ([1]; 336 h, 14 DAA) [%] | pest or weed control at 560 g/ha ([1]; 336 h, 14 DAA) [%] | pest or weed control at 280 g/ha ([1]; 504 h, 21 DAA) [%] | pest or weed control at 560 g/ha ([1]; 504 h, 21 DAA) [%] | pest or weed control at 280 g/ha ([2]; 168 h, 7 DAA) [%] | pest or weed control at 560 g/ha ([2]; 168 h, 7 DAA) [%] | pest or weed control at 280 g/ha ([2]; 336 h, 14 DAA) [%] | pest or weed control at 560 g/ha ([2]; 336 h, 14 DAA) [%] | pest or weed control at 280 g/ha ([2]; 504 h, 21 DAA) [%] | pest or weed control at 560 g/ha ([2]; 504 h, 21 DAA) [%] | pest or weed control at 280 g/ha ([3]; 168 h, 7 DAA) [%] | pest or weed control at 560 g/ha ([3]; 168 h, 7 DAA) [%] | pest or weed control at 280 g/ha ([3]; 336 h, 14 DAA) [%] | pest or weed control at 560 g/ha ([3]; 336 h, 14 DAA) [%] | pest or weed control at 280 g/ha ([3]; 504 h, 21 DAA) [%] | pest or weed control at 560 g/ha ([3]; 504 h, 21 DAA) [%] | TGA Data (rate of weight loss, volatility) [4] [µg/min] | pest or weed control at 280 g/ha ([5]; 168 h, 7 DAA) [%] | further results |
| --- | --- | --- | --- | --- | --- | --- | --- | --- | --- | --- | --- | --- | --- | --- | --- | --- | --- | --- | --- | --- | --- |
| O=C(COc1ccc(Cl)cc1Cl)ON1CCCCC1 [Compound A11, Piperidin-1-yl 2-(2,4-dichlorophenoxy)acetate] | 73 | 75 | 89 | 85 | 85 | 88 | 65 | 68 | 90 | 85 | 95 | 95 | 68 | 70 | 75 | 80 | 80 | 97 | 4 | 65 | pest or weed control at 560 g/ha ([5]; 168 h, 7 DAA): 78%; pest or weed control at 280 g/ha ([5]; 336 h, 14 DAA): 90%; pest or weed control at 560 g/ha ([5]; 336 h, 14 DAA): 97%; pest or weed control at 280 g/ha ([5]; 504 h, 21 DAA): 95%; pest or weed control at 560 g/ha ([5]; 504 h, 21 DAA): 100%; pest or weed control at 280 g/ha ([6]; 168 h, 7 DAA): 71%; pest or weed control at 560 g/ha ([6]; 168 h, 7 DAA): 75%; pest or weed control at 280 g/ha ([6]; 336 h, 14 DAA): 87%; pest or weed control at 560 g/ha ([6]; 336 h, 14 DAA): 87%; pest or weed control at 280 g/ha ([6]; 504 h, 21 DAA): 91%; pest or weed control at 560 g/ha ([6]; 504 h, 21 DAA): 95%; pest or weed control at 280 g/ha ([7]; 168 h, 7 DAA): 83%; pest or weed control at 560 g/ha ([7]; 168 h, 7 DAA): 85%; pest or weed control at 280 g/ha ([7]; 336 h, 14 DAA): 93%; pest or weed control at 560 g/ha ([7]; 336 h, 14 DAA): 89%; pest or weed control at 280 g/ha ([7]; 504 h, 21 DAA): 99%; pest or weed control at 560 g/ha ([7]; 504 h, 21 DAA): 95% |
| N/C(=N\OC(=O)COc1ccc(Cl)cc1Cl)c1ccc(/C(N)=N/OC(=O)COc2ccc(Cl)cc2Cl)cc1 [Compound B5, (1,4)—N°1, N°4-Bis(2-(2,4-dichlorophenoxy)acetoxy)terephthalimidamide] | 25 | 25 | 0 | 18 | 15 | 33 | 5 | 25 | 30 | 35 | 15 | 28 | 15 | 13 | 20 | 15 | 40 | 13 | 0.1 | 18 | pest or weed control at 560 g/ha ([5]; 168 h, 7 DAA): 15%; pest or weed control at 280 g/ha ([5]; 336 h, 14 DAA): 8%; pest or weed control at 560 g/ha ([5]; 336 h, 14 DAA): 15%; pest or weed control at 280 g/ha ([5]; 504 h, 21 DAA): 5%; pest or weed control at 560 g/ha ([5]; 504 h, 21 DAA): 18%; pest or weed control at 280 g/ha ([6]; 168 h, 7 DAA): 13%; pest or weed control at 560 g/ha ([6]; 168 h, 7 DAA): 16%; pest or weed control at 280 g/ha ([6]; 336 h, 14 DAA): 14%; pest or weed control at 560 g/ha ([6]; 336 h, 14 DAA): 17%; pest or weed control at 280 g/ha ([6]; 504 h, 21 DAA): 17%; pest or weed control at 560 g/ha ([6]; 504 h, 21 DAA): 18%; pest or weed control at 280 g/ha ([7]; 168 h, 7 DAA): 0%; pest or weed control at 560 g/ha ([7]; 168 h, 7 DAA): 3%; pest or weed control at 280 g/ha ([7]; 336 h, 14 DAA): 10%; pest or weed control at 560 g/ha ([7]; 336 h, 14 DAA): 3%; pest or weed control at 280 g/ha ([7]; 504 h, 21 DAA): 10%; pest or weed control at 560 g/ha ([7]; 504 h, 21 DAA): 0% |
